Experimental data taken from US20090023721A1, “Novel Substituted Tetracyclic Tetrahydrofuran, Pyrrolidine and Tetrahydrothiophene Derivatives and Their Use as a Medicament” (priority 2005, published 2009).
Where two headings read alike, the source gives them in different places.

How the values were obtained:
[1] = target: T1, human cloned 5-HT2A receptor, expressed in L929 cells (Homo sapiens, UniProt P28223); assay: In vitro radioligand binding affinity for 5-HT2A receptor ([125I]R91150)
T1 construct: expressed in transfected cells; host or cells: L929 cells
T1 sequence (P28223 whole entry): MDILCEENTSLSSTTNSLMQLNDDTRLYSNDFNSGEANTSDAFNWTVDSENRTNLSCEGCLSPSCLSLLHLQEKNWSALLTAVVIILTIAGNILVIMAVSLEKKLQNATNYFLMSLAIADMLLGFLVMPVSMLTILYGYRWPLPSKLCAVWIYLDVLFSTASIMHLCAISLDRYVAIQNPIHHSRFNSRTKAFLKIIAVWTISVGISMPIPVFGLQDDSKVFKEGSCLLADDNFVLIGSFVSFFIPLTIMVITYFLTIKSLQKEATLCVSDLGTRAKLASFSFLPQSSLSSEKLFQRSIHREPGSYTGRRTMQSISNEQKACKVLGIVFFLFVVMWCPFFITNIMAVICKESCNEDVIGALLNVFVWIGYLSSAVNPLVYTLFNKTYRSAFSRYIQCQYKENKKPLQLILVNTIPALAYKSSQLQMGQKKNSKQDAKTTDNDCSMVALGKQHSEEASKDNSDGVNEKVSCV
Method: The interaction of the compounds of Formula (I) with 5-HT2A and 5-HT2C receptors was assessed in in vitro radioligand binding experiments. In general, a low concentration of a radioligand with a high binding affinity for the receptor is incubated with a sample of a tissue preparation enriched in a particular receptor (1 to 5 mg tissue) in a buffered medium (0.2 to 5 ml). During the incubation, the radioligands bind to the receptor. When equilibrium of binding is reached, the receptor bound radioactivity is separated from the non-bound radioactivity, and the receptor bound activity is counted. The interaction of the test compounds with the receptors is assessed in competition binding experiments. Various concentrations of the test compound are added to the incubation mixture containing the tissue preparation and the radioligand. Binding of the radioligand will be inhibited by the test compound in proportion to its binding affinity and its concentration. The affinities of the compounds for the 5-HT2 receptors were measured by means of radioligand binding studies conducted with: (a) human cloned 5-HT2A receptor, expressed in L929 cells using [^125I]R91150 as radioligand and (b) human cloned 5-HT2C receptor, expressed in CHO cells using [^3H]mesulergine as radioligand.

[2] = target: T2, human cloned 5-HT2C receptor, expressed in CHO cells (Homo sapiens, UniProt P28335); assay: In vitro radioligand binding affinity for 5-HT2C receptor ([3H]mesulergine)
T2 construct: expressed in transfected cells; host or cells: CHO cells
T2 sequence (P28335 33-458): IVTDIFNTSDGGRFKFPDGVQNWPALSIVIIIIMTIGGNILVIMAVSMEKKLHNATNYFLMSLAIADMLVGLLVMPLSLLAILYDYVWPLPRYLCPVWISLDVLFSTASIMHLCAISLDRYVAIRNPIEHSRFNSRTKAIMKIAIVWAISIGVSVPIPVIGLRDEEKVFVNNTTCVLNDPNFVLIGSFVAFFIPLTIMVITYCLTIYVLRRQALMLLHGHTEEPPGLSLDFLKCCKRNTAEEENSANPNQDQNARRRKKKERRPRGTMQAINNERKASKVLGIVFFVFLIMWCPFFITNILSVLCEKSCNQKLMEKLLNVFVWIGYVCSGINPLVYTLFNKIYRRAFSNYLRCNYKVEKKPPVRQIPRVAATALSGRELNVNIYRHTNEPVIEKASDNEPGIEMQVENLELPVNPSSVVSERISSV
Method: The interaction of the compounds of Formula (I) with 5-HT2A and 5-HT2C receptors was assessed in in vitro radioligand binding experiments. […] During the incubation, the radioligands bind to the receptor. When equilibrium of binding is reached, the receptor bound radioactivity is separated from the non-bound radioactivity, and the receptor bound activity is counted. The interaction of the test compounds with the receptors is assessed in competition binding experiments. Various concentrations of the test compound are added to the incubation mixture containing the tissue preparation and the radioligand. Binding of the radioligand will be inhibited by the test compound in proportion to its binding affinity and its concentration.

[3] = target: T3, human Dopamine D2L receptor (Homo sapiens, UniProt P14416); assay: In vitro binding affinity for human D2L receptor ([3H]Spiperone)
T3 construct: expressed in transfected cells; host or cells: CHO cells (frozen membranes)
T3 sequence (P14416 whole entry): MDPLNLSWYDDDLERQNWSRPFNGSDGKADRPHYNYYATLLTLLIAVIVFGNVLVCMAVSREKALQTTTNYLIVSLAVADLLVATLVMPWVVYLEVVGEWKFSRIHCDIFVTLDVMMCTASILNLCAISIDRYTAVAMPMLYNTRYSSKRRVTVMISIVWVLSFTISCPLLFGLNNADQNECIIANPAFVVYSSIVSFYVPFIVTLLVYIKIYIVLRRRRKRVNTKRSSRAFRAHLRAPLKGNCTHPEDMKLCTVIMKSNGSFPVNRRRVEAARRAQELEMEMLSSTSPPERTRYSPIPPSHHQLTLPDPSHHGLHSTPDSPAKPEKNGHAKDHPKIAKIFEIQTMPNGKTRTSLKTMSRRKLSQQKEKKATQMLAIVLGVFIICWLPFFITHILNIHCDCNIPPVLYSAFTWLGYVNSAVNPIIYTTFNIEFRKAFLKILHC
Method: Frozen membranes of human Dopamine D2L receptor-transfected CHO cells were thawed, briefly homogenised using an Ultra-Turrax T25 homogeniser and diluted in Tris-HCl assay buffer containing NaCl, CaCl2, MgCl2, KCl (50, 120, 2, 1, and 5 mM respectively, adjusted to pH 7.7 with HCl) to an appropriate protein concentration optimised for specific and non-specific binding. Radioligand [^3H]Spiperone (NEN, specific activity ˜70 Ci/mmol) was diluted in assay buffer at a concentration of 2 nmol/L. Prepared radioligand (50 μl), along with 50 μl of either the 10% DMSO control, Butaclamol (10-6 mol/l final concentration), or compound of interest, was then incubated (30 min, 37° C.) with 400 μl of the prepared membrane solution. Membrane-bound activity was filtered through a Packard Filtermate harvester onto GF/B Unifilterplates and washed with ice-cold Tris-HCl buffer (50 mM; pH 7.7; 6×0.5 ml). Filters were allowed to dry before adding scintillation fluid and counting in a Topcount scintillation counter. Percentage specific bound and competition binding curves were calculated using S-Plus software (Insightful).

NET = target: T4, NET (Rattus norvegicus, UniProt Q9WTR4); assay: In vitro determination of NET reuptake inhibition ([3H]Nixosetine binding, rat brain cortex membranes)
T4 construct: Cortex from rat brain was collected and homogenised; from tissue; host or cells: rat brain cortex membranes
T4 sequence (Q9WTR4 1-597): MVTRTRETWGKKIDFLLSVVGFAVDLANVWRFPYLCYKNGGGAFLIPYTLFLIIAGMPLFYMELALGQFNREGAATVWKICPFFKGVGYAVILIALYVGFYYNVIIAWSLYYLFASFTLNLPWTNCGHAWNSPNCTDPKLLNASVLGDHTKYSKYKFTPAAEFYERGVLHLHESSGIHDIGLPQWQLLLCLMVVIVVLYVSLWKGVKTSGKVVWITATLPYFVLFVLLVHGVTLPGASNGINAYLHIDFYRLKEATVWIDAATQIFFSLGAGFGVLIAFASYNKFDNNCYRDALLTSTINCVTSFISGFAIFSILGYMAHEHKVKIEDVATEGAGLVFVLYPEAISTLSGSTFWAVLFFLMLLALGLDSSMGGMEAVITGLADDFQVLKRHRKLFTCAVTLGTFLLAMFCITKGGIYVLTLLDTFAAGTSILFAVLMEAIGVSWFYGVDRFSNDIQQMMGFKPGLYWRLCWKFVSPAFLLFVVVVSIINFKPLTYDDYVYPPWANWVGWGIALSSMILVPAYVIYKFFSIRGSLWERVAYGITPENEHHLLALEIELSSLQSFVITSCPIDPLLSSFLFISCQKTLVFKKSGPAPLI
Method: Cortex from rat brain was collected and homogenised using an Ultra-Turrax T25 and a Dual homogeniser in ice-cold homogenising buffer containing Tris, NaCl and KCl (50 mM, 120 mM and 5 mM, respectively, pH 7.4) prior to dilution to an appropriate protein concentration optimised for specific and non-specific binding. […] Membrane-bound activity was detected by filtration through a Packard Filtermate harvester onto GF/B Unifilterplates, washed with ice-cold Tris-HCl buffer, containing NaCl and KCl (50 mM, 120 mM and 4 mM; pH 7.4; 6×0.5 ml). Filters were allowed to dry for 24 h before adding scintillation fluid. Scintillation fluid was allowed to saturate filters for 24 h before counting in a Topcount scintillation counter. Percentage specific bound and competition binding curves were calculated using S-Plus software (Insightful).

[4] = human cloned 5-HT2A receptor in L929 cells, [125I]R91150, read-out: h-5HT2A (converted)
[5] = human cloned 5-HT2C receptor in CHO cells, [3H]mesulergine, read-out: h-5HT2C (converted)
[6] = human D2L receptor-transfected CHO cell membranes, [3H]Spiperone, read-out: h-D2L (converted)

For `CNC1CO[C@H]2c3cc(F)ccc3Cc3ccccc3[C@H]2C1` (stereo in doubt) [compound 33, (3R,4aR,13bR)-12-fluoro-N-methyl-2,3,4,4a,9,13b-hexahydrodibenzo[3,4:6,7]cyclo-hepta[1,2-b]pyran-3-amine], the melting point was 55 to 56 °C.

With `CN(C)C[C@H]1C[C@@H]2c3ccccc3Cc3ccc(F)cc3[C@H]2N1` [37a, [(2R,3aR,12bS)-11-fluoro-1,2,3,3a,8,12b-hexahydrodibenzo[3,4:6,7]cyclohepta[1,2-b]-pyrrol-2-yl]-N,N-dimethylmethanamine] the IC50 [1, 4] was 44.7 nM, the IC50 [2, 5] was 50.1 nM and the IC50 [3, 6] was 355 nM. For the same compound, the IC50 (NET) was 7.94 nM.

Work on `COCC(=O)N1[C@@H](CN(C)C)C[C@@H]2c3ccccc3Cc3ccc(F)cc3[C@H]21` [compound 10, [(2R,3aR,12bS)-11-fluoro-1-(methoxyacetyl)-1,2,3,3a,8,12b-hexahydrodibenzo[3 ,4:6,7]cyclohepta[1,2-b]pyrrol-2-yl]-N,N-dimethylmethanamine] yielded an IC50 [1, 4] of 692 nM, an IC50 [2, 5] of 427 nM and an IC50 [3, 6] greater than 1000 nM. It also gave an IC50 (NET) of 4790 nM.

Work on `CN1CCN2[C@H](C[C@@H]3c4ccccc4Cc4ccc(F)cc4[C@H]32)C1` [14a, (5aS,14bR,15a,R)-7-fluoro-2-methyl-1,3,4,5a,10,14b,15,1 5a-octahydro-2H-dibenzo-[3′,4′:6′,7′]cyclohepta[1′,2′:4,5]pyrrolo[1,2-a]pyrazine] yielded an IC50 [1] of 1.26 nM, an IC50 [2] of 0.891 nM and an IC50 [3] of 1.55 nM. For the same compound, the “NET Reuptake Inhibition” value (NET) was 5.50.

In the case of `COC(=O)N1[C@@H](CN(C)C)C[C@@H]2c3ccccc3Cc3ccc(F)cc3[C@H]21` [36a, Methyl (2R,3aR, 12bS)-2-[(dimethylamino)methyl]-11-fluoro-3,3a,8,12b-tetrahydro dibenzo[3,4:6,7]cyclohepta[1,2-b]pyrrole-1(2H)-carboxylate], the h-5HT2A ([1]; human cloned 5-HT2A receptor in L929 cells, [125I]R91150) is reported as less than 6, the h-5HT2C ([2]; human cloned 5-HT2C receptor in CHO cells, [3H]mesulergine) is reported as less than 6 and the h-D2L ([3]; human D2L receptor-transfected CHO cell membranes, [3H]Spiperone) is reported as less than 6. The “NET Reuptake Inhibition” value (NET) was 6.16.

`CNC[C@H]1CC[C@@H]2c3ccccc3Cc3ccc(F)cc3[C@H]2O1` [compound 46, [(2R,4aR,13bS)-12-fluoro-2,3,4,4a,9,13b-hexahydrodibenzo[3,4:6,7]cyclohepta-[1,2-b]pyran-2-yl]-N-methylmethanamine] gave an IC50 [1, 4] of 13.8 nM, an IC50 [2, 5] of 5.89 nM and an IC50 [3, 6] of 6310 nM. The IC50 (NET) was 398 nM.

With `CN1C[C@@H]2C[C@@H]3c4ccccc4Cc4ccc(F)cc4[C@H]3N2C1` [compound 1, (4aS,13bR,14aS)-6-fluoro-2-methyl-1,2,3,4a,9,13b,14,14a-octahydrodibenzo-[3′,4′:6′,7′]cyclohepta[1′,2′:4,5]pyrrolo[1,2-c]imidazole] the IC50 [1, 4] was 115 nM, the IC50 [2, 5] was 151 nM and the IC50 [3, 6] was 2240 nM. For the same compound, the IC50 (NET) was 115 nM.

Compound `O[C@H]1CO[C@H]2c3cc(F)ccc3Cc3ccccc3[C@H]2C1` [compound 29, (3R,4aR,13bR)-12-fluoro-2,3,4,4a,9,13b-hexahydrodibenzo[3,4:6,7]cyclohepta[1,2-b]-pyran-3-ol] has a melting point of 59 to 61 °C.

Compound `CNC[C@H]1C[C@@H]2c3ccccc3Cc3ccc(F)cc3[C@H]2N1C=O` [compound 38, (2R,3aR,12bS)-11-fluoro-2-[(methylamino)methyll]-3,3a,8,12b-tetrahydrodibenzo-[3,4:6,7]cyclohepta[1,2-b]pyrrole-1 (2H)-carbaldehyde] has an IC50 [1, 4] of 631 nM, an IC50 [2, 5] of 186 nM and an IC50 [3, 6] of 7080 nM. It also gave an IC50 (NET) of 490 nM.

Work on `CN1C[C@H]2C[C@@H]3c4ccccc4Cc4ccc(F)cc4[C@H]3N2C1=O` [compound 7] yielded an IC50 [1, 4] greater than 1000 nM, an IC50 [2, 5] greater than 1000 nM and an IC50 [3, 6] greater than 1000 nM. It also gave an IC50 (NET) of 891 nM.

For `O=C1CO[C@H]2c3cc(F)ccc3Cc3ccccc3[C@H]2C1` [compound 31, (4aR,13bR)-12-fluoro-4,4a,9,13b-tetrahydrodibenzo[3,4:6,7]cyclohepta[1,2-b]pyran-3(2H)-one], the melting point was 146 to 148 °C.
